Measured values taken from patent US9765067B2, “Thiophen-2-yl-pyridin-2-yl-1H-pyrazole-4-carboxylic acid derivatives and the use thereof as soluble guanylate cyclase activators” (Novartis AG, priority 2014, dated 2017).

molecular target: T1, soluble guanylate cyclase (human GUCYA3/GUCYB3) overexpressed in CHO cells (Homo sapiens, UniProt Q02108+Q02153); test: CHO cellular assay (cGMP production, HTRF); assay type: cell-based; details: CHO K1 clone 8E10 overexpressing human sGC, Cisbio HTRF, 1 h room temperature, 1 mM IBMX, 20 uM ODQ, minimum quantification limit 0.5 nM
T1 construct: expressed in transfected cells
T1 sequence (Q02108 1-690 partner): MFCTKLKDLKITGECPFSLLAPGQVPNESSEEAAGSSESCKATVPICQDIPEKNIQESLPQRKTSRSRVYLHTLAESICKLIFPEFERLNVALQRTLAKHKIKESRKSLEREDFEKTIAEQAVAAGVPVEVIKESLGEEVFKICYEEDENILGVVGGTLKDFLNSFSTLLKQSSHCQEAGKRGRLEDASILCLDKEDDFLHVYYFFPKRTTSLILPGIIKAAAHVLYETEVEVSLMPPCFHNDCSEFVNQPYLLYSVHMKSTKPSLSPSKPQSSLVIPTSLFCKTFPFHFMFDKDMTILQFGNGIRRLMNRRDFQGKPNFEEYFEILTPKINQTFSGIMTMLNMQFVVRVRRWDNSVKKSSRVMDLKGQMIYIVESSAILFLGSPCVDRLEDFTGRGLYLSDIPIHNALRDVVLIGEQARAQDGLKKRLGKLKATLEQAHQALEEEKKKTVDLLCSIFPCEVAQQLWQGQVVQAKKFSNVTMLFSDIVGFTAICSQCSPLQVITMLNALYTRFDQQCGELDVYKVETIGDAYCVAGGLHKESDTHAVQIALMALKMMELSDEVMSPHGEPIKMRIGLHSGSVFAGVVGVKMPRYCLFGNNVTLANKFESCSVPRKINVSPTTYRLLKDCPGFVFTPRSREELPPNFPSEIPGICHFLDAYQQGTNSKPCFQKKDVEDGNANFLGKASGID
T1 sequence (Q02153 1-619): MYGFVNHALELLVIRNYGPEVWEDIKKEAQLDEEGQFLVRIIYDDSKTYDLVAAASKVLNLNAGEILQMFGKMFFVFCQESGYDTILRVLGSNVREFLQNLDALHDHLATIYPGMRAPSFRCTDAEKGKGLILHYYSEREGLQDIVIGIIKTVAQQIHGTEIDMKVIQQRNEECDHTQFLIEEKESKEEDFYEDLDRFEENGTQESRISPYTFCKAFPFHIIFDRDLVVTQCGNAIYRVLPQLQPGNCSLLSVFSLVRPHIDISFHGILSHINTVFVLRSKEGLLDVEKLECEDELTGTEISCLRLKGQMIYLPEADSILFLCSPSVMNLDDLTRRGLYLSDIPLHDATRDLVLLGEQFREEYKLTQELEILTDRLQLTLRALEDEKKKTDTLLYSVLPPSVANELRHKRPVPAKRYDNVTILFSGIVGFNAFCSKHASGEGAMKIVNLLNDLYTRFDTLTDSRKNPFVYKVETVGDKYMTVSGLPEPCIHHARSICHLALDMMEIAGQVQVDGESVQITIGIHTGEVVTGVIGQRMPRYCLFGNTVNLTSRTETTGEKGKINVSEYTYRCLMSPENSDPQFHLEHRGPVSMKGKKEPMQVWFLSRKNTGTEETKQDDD
How it was run: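 Stable CHO K1 clone expressing human GUCYA3/GUCYB3. Compounds applied 1 h at room temperature in HBSS, 0.1% BSA, 1 mM IBMX, 20 uM ODQ, 0.5% DMSO. cGMP measured by HTRF and interpolated from a standard curve; EC50 from 4-parameter sigmoidal fit.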

SMILES	EC50 [nM]
Cc1cc(C2CCN(C(=O)C3CC3)CC2)ccc1NCc1c(C)csc1-c1cccc(-n2ncc(C(=O)O)c2C(F)(F)F)n1 [Example 19, 1-(6-(3-(((4-(1-(Cyclopropanecarbonyl)piperidin-4-yl)-2-methylphenyl)amino)methyl)-4-methylthiophen-2-yl)pyridin-2-yl)-5-(trifluoromethyl)-1H-pyrazole-4-carboxylic acid]	1
Cc1csc(-c2cccc(-n3ncc(C(=O)O)c3C(F)(F)F)n2)c1CNc1ccc(C2CCN(C(=O)C3CC3)CC2)cc1 [Example 20-1, 1-(6-(3-(((4-(1-(Cyclopropanecarbonyl)piperidin-4-yl)phenyl)amino)methyl)-4-methylthiophen-2-yl)pyridin-2-yl)-5-(trifluoromethyl)-1H-pyrazole-4-carboxylic acid]	12
CCc1c(C(=O)O)cnn1-c1cccc(-c2sc(C)c(C)c2CNc2ccc(C3CCN(C(=O)C4CC4)CC3)cc2C)n1 [Example 20-2, 1-(6-(3-(((4-(1-(Cyclopropanecarbonyl)piperidin-4-yl)-2-methylphenyl)amino)methyl)-4,5-dimethylthiophen-2-yl)pyridin-2-yl)-5-ethyl-1H-pyrazole-4-carboxylic acid]	≤ 0.5
Cc1cc(C2CCN(CC(F)(F)F)CC2)ccc1NCc1c(C)csc1-c1cccc(-n2ncc(C(=O)O)c2C(F)(F)F)n1 [Example 20-3, 1-(6-(4-Methy1-3-(((2-methy1-4-(1-(2,2,2-trifluoroethyl)piperidin-4-yl)phenyl)amino)methyl)thiophen-2-yl)pyridin-2-yl)-5-(trifluoromethyl)-1H-pyrazole-4-carboxylic acid]	39
CCC(=O)N1CCC(c2ccc(OCc3cc(C)sc3-c3cccc(-n4ncc(C(=O)O)c4C(F)(F)F)n3)c(C)c2)CC1 [Example 21, 1-(6-(5-Methyl-3-((2-methyl-4-(1-propionylpiperidin-4-yl)phenoxy)methyl)thiophen-2-yl)pyridin-2-yl)-5-(trifluoromethyl)-1H-pyrazole-4-carboxylic acid]	≤ 0.5
CCc1cc(COc2ccc(C3CCN(C(=O)C4CC4)CC3)cc2C)c(-c2cccc(-n3ncc(C(=O)O)c3C(F)(F)F)n2)s1 [Example 22-1, 1-(6-(3-((4-(1-(Cyclopropanecarbonyl)piperidin-4-yl)-2-methylphenoxy)methyl)-5-ethylthiophen-2-yl)pyridin-2-yl)-5-(trifluoromethyl)-1H-pyrazole-4-carboxylic acid]	2
O=C(O)c1cnn(-c2cccc(-c3sccc3COc3ccc4c(c3)CCN(Cc3ccccn3)C4)n2)c1C(F)(F)F [Example 23, 1-(6-(3-(((2-(Pyridin-2-ylmethyl)-1,2,3,4-tetrahydroisoquinolin-6-yl)oxy)methyl)thiophen-2-yl)pyridin-2-yl)-5-(trifluoromethyl)-1H-pyrazole-4-carboxylic acid]	38
CCc1cc(NCc2cc(C)sc2-c2cccc(-n3ncc(C(=O)O)c3C(F)(F)F)n2)ccc1C1CCN(C(=O)C2CC2)CC1 [Example 24, 1-(6-(3-(((4-(1-(Cyclopropanecarbonyl)piperidin-4-yl)-3-ethylphenyl)amino)methyl)-5-methylthiophen-2-yl)pyridin-2-yl)-5-(trifluoromethyl)-1H-pyrazole-4-carboxylic acid]	6
Cc1cc(CCc2ccc(C3CCN(C(=O)C4CC4)CC3)cc2C)c(-c2cccc(-n3ncc(C(=O)O)c3C(F)(F)F)n2)s1 [Example 25, 1-(6-(3-(4-(1-(Cyclopropanecarbonyl)piperidin-4-yl)-2-methylphenethyl)-5-methylthiophen-2-yl)pyridin-2-yl)-5-(trifluoromethyl)-1H-pyrazole-4-carboxylic acid]	≤ 0.5
Cc1cc(C2CCN(C(=O)C3CC3)CC2)ccc1CCc1ccsc1-c1cccc(-n2ncc(C(=O)O)c2C(F)(F)F)n1 [Example 26, 1-(6-(3-(4-(1-(Cyclopropanecarbonyl)piperidin-4-yl)-2-methylphenethyl)thiophen-2-yl)pyridin-2-yl)-5-(trifluoromethyl)-1H-pyrazole-4-carboxylic acid]	≤ 0.5
O=C(O)c1cnn(-c2cccc(-c3sccc3CCc3ccc(C4CCN(C(=O)C5CC5)CC4)cc3)n2)c1C(F)(F)F [Example 27, 1-(6-(3-(4-(1-(Cyclopropanecarbonyl)piperidin-4-yl)phenethyl)thiophen-2-yl)pyridin-2-yl)-5-(trifluoromethyl)-1H-pyrazole-4-carboxylic acid]	≤ 0.5
O=C(O)c1cnn(-c2cccc(-c3sccc3CNc3ccc(C4CCN(C(=O)C5CC5)CC4)cc3)n2)c1C(F)(F)F [Example 28, 1-(6-(3-(((4-(1-(Cyclopropanecarbonyl)piperidin-4-yl)phenyl)amino)methyl)thiophen-2-yl)pyridin-2-yl)-5-(trifluoromethyl)-1H-pyrazole-4-carboxylic acid]	4.5
Cc1cc(C2CCN(C3COC3)CC2)ccc1OCc1ccsc1-c1cccc(-n2ncc(C(=O)O)c2C(F)(F)F)n1 [Example 29, 1-(6-(3-((2-Methyl-4-(1-(oxetan-3-yl)piperidin-4-yl)phenoxy)methyl)thiophen-2-yl)pyridin-2-yl)-5-(trifluoromethyl)-1H-pyrazole-4-carboxylic acid]	67
Cc1cc(COc2ccc(C3CCN(C(=O)C4CC4)CC3)c(CO)c2)c(-c2cccc(-n3ncc(C(=O)O)c3C(F)(F)F)n2)s1 [Example 30, 1-(6-(3-((4-(1-(Cyclopropanecarbonyl)piperidin-4-yl)-3-(hydroxymethyl)phenoxy)methyl)-5-methylthiophen-2-yl)pyridin-2-yl)-5-(trifluoromethyl)-1H-pyrazole-4-carboxylic acid]	61
CCC(=O)N1CCC(c2ccc(COc3ccsc3-c3cccc(-n4ncc(C(=O)O)c4C(F)(F)F)n3)cc2)CC1 [Example 31, 1-(6-(3-((4-(1-Propionylpiperidin-4-yl)benzyl)oxy)thiophen-2-yl)pyridin-2-yl)-5-(trifluoromethyl)-1H-pyrazole-4-carboxylic acid]	13
Cc1cc(COc2ccc(C3CCN(C(=O)C4CC4)CC3)cc2C(F)(F)F)c(-c2cccc(-n3ncc(C(=O)O)c3C(F)(F)F)n2)s1 [Example 32, 1-(6-(3-((4-(1-(Cyclopropanecarbonyl)piperidin-4-yl)-2-(trifluoromethyl)phenoxy)methyl)-5-methylthiophen-2-yl)pyridin-2-yl)-5-(trifluoromethyl)-1H-pyrazole-4-carboxylic acid]	≤ 0.5
O=C(O)c1cnn(-c2cccc(-c3sccc3COc3ccc(C4CCN(C(=O)C5CC5)CC4)cc3C(F)(F)F)n2)c1C(F)(F)F [Example 33-1, 1-(6-(3-((4-(1-(Cyclopropanecarbonyl)piperidin-4-yl)-2-(trifluoromethyl)phenoxy)methyl)thiophen-2-yl)pyridin-2-yl)-5-(trifluoromethyl)-1H-pyrazole-4-carboxylic acid]	23
CCC(=O)N1CCC(c2ccc(OCc3ccsc3-c3cccc(-n4ncc(C(=O)O)c4C(F)(F)F)n3)c(C(F)(F)F)c2)CC1 [Example 33-2, (6-(3-((4-(1-Propionylpiperidin-4-yl)-2-(trifluoromethyl)phenoxy)methyl)thiophen-2-yl)pyridin-2-yl)-5-(trifluoromethyl)-1H-pyrazole-4-carboxylic acid]	15
Cc1cc(C2CCN(C(=O)C3CC3)CC2)ccc1OCc1cc(C(C)C)sc1-c1cccc(-n2ncc(C(=O)O)c2C(F)(F)F)n1 [Example 35-1, 1-(6-(3-((4-(1-(Cyclopropanecarbonyl)piperidin-4-yl)-2-methylphenoxy)methyl)-5-isopropylthiophen-2-yl)pyridin-2-yl)-5-(trifluoromethyl)-1H-pyrazole-4-carboxylic acid]	96
